Results on 36 compounds are retold here after a melting point compilation (Tetko et al.; mined from patent text by program, amines drawn as free bases though some values may be those of a salt).

Molecules are shown by their SMILES. Where only a bound is given, the exact number is not on record here.

A word on the melting point: it is the temperature of the solid-liquid transition. `O=c1ccc2ccc(OCC(O)CO)cc2o1` (stereo unspecified) returned a melting point of 118 to 120 °C. The result for `CC(C)C1OC(=Nc2nccs2)c2c1nc1c(C(F)(F)F)cccc1c2O` (stereo unspecified) reads 246 to 248 °C.

On to `CCCCc1nc2ccn(Cc3ccc(C(=O)O)cc3)c(=O)c2n1Cc1ccc(-c2ccccc2-c2nnn[nH]2)cc1`, for which the melting point was more than 300 °C. The compound `O=C(CNC(=O)c1ccccc1)c1ccccc1` had a melting point of 114 to 120 °C. Consider `Nc1ccc2nc(CN3CCCC3)ccc2c1`, for which the melting point lay in the range of 102 to 104 °C. Compound `Cc1cc(NC(=O)Nc2c(C)cccc2C)no1` came in with a melting point of 200 °C. The result for `CC(=O)Nc1ccc(Cn2c3c(c4cc(F)cc(F)c42)CCCC3CC(=O)O)cc1` (stereo unspecified) reads 237 to 239 °C.

The compound `COC(=O)c1ccc([C@H](C)NC(C)=O)cc1` registered a melting point of 125 to 127 °C.

On to `COc1ncc(CN2C(=O)C3(COc4cc5c(cc43)OCCO5)c3ccccc32)cn1` (stereo unspecified), for which the melting point lay in the range of 102 to 104 °C.

Consider `O=C(O)C(=O)CC(=O)c1cn(Cc2ccc3ccccc3n2)c2ccccc2c1=O`, for which the melting point is more than 300 °C. `Oc1ccc2c(c1)SCCc1c-2n(CCCCCN2CCCCC2)c2ccc(O)cc12` gave a melting point of 195 to 196 °C. In turn, `Nc1ccc(S(=O)C(F)(F)C(F)F)cc1F` (stereo unspecified) displayed a melting point of 67 to 69 °C. The compound `CC1=Nc2ccccc2S(=O)(=O)N1` showed a melting point of 260 to 261 °C. `CCCC[C@H](NC(=O)[C@H](CC(C)C)NC(=O)c1cc(F)cc(F)c1)C(=O)CSCc1ccco1` registered a melting point of 125 to 126 °C.

In the case of `COC(=O)COc1nc(N)nc(-c2ccccc2)c1-c1ccc(=O)n(C(C)C)n1`, the melting point was 150 to 152 °C. Then `O=c1nc(-c2ccccc2)c2cc([N+](=O)[O-])ccc2n1CC12CC3CC(CC(C3)C1)C2`, with 228 to 231 °C.

Compound `COc1cc(C#N)cc2cc(CO)oc12` gave a melting point of 149 to 150 °C.

Consider `O=c1c2cc(F)c(F)cc2n(-c2cccc(F)c2)c(=O)n1OCc1ccccc1`, for which the melting point was in the range of 179 to 181 °C. `CS(=O)(=O)n1cc(F)c(=O)[nH]c1=O` came in with a melting point of 223 to 224 °C. Regarding `CC(=O)c1ccc(=O)[nH]c1C=CN(C)C`, the melting point fell in the range of 238 to 240 °C. For the compound `CCCCCCCOc1ccc(C(=O)O)c(C)c1`, the melting point was in the range of 74 to 76 °C. In turn, `COc1ccc(Nc2nc(NC3CC3)nc(NC3CC3)n2)cc1F` returned a melting point of 91 to 92 °C.

As to `O=C(Nc1cccnc1)C(Cl)(Cl)Cl`, the melting point lay within 149 to 151 °C.

In the case of `CNc1nc(NC)c2ncn(COC(CO)CO)c2n1`, the melting point came out at 198 °C. With `COC(=O)C1Cc2c([nH]c3ccccc23)CN1C(=S)SC` (stereo unspecified), the melting point lay in the range of 132 to 134 °C. In turn, `CC(=O)OCCCOc1ccc([N+](=O)[O-])c(C=C2NC(=O)NC2=O)c1` returned a melting point of 94 to 130 °C. For the compound `Cc1c(CC(=O)N(C)O)c2cc(OCc3nc4ccccc4s3)ccc2n1Cc1ccc(Cl)cc1`, the melting point lay in the range of 174 to 175 °C. Compound `Cc1noc(CCCCCCCOc2ccc(C3=NCCO3)cc2Cl)c1CO` registered a melting point of 53 to 54 °C. Compound `CC1OC(n2cc(F)c(NC(=O)c3ccccc3)nc2=O)C(OC(=O)c2ccccc2)C1OC(=O)c1ccccc1` (stereo unspecified) registered a melting point of 158 to 160 °C. The result for `CCCC(=O)n1nc2c(c1NC)c(=O)n(CCC)c(=O)n2Cc1ccccc1` reads 138 to 139 °C.

Turning to `Clc1c[nH]nc1-c1cc(Br)cc(Br)c1`, the melting point worked out at 188 °C. In the case of `CCCCC(c1cc(F)ccc1F)S(=O)c1ccc(Cl)cc1` (stereo unspecified), the melting point lay within 108 to 109 °C. `O=C(NC1N=C(c2ccccc2F)c2ccccc2NC1=O)c1ccc(C(F)(F)F)cc1` (racemic): the melting point was in the range of 209 to 211 °C. In turn, `O=C(Nc1ccccc1)N(Cc1ccc(Br)cc1)C1CCCC1` had a melting point of 130 to 132 °C.

With `O=C(O)COc1cccc(CCc2nc(-c3cccs3)c(-c3cccs3)o2)c1`, the melting point lay within 106 to 107 °C. The compound `COC(=O)c1cc(-c2ccc(OC)cc2)nn(CCC#N)c1=O` displayed a melting point of 141 to 143 °C.
